Entries after “also recorded” stand apart in the source; their conditions may differ. Read-outs that look alike come from different tables or passages of the source.

The nature of data set [1]: Pharmacokinetic studies in mice (plasma, LC/MS/MS). Format: in vivo, ICR mice. As to conditions: mice, single I.V. dose 50 mg/kg. The procedure:
ICR mice were administered a single dose of drug into the tail vein. At each time point, 3 animals were sacrificed and the blood was withdrawn by cardiac puncture. The blood cells were spun down and the plasma was collected and frozen immediately in liquid nitrogen. For sample processing, the plasma was thawed and extraction solvent was added along with an internal standard to assess recoveries. The samples were vortexed followed by centrifugation, and the extraction solution was collected and subjected to LC/MS/MS analysis to identify and quantitate the compound plasma concentration. The levels of compound from the three animals at each time point were averaged and the pharmacokinetic parameters calculated using WinNonLin program. Table V summarized the major PK parameters.

The next data set relates to MX-1 (Breast cancer). Nature of the data set: Efficacy in human tumor xenograft mouse model MX-1. Format: in vivo, human tumor in CD1 nu/nu mice. To be noted: MX-1 xenograft, 50 mg/kg, every day, I.V. As for the experimental part: (§1) CD1 nu/nu mice were used. Viable tumor bits of transplantable human xenografts approximately 50 mg of trocar or cultured human tumor cells (nx106 cells?) were implanted subcutaneously into the flank region of mice and tumors were allowed to grow to the desired average size of 100 mg. The mice were measured for tumor size and those within the accepted tumor range of 75–125 mg, were randomized into control and treatment groups with 8–9 mice per group. Treatment was initiated on these groups which have an average starting tumor size of 100 mg. The control group was injected with the vehicle used to dissolve the drug. Injections were I.V. via the tail vein. Tumor measurements were taken every other day along with weights of animals and all animals were observed daily for survival. Tumor size was calculated by the equation of: Tumor volume=(length×width^2)/2.

The next data set concerns T-47D. The data set can be described thus: Caspase cascade activation / apoptosis induction assay (N-(Ac-DEVD)-N'-ethoxycarbonyl-R110 substrate) in T-47D cells. Format: cell-based, Human. As to conditions: T47D cells. As for the experimental part: Human breast cancer cell lines T-47D and ZR-75-1 were grown according to media component mixtures designated by American Type Culture Collection+10% FCS (Invitrogen Corporation), in a 5% CO2-95% humidity incubator at 37° C. T-47D and ZR-75-1 cells were maintained at a cell density between 30 and 80% confluency and for HL-60 at a cell density of 0.1 to 0.6×10^6 cells/ml. Cells were harvested at 600×g and resuspended at 0.65×10^6 cells/mL into appropriate media+10% FCS. An aliquot of 45 μl of cells was added to a well of a 96-well microtiter plate containing 5 μl of a 10% DMSO in RPMI-1640 media solution containing 1.6 to 100 μM of gambogic acid or other test compound (0.16 to 10 μM final). An aliquot of 45 μl of cells was added to a well of a 96-well microtiter plate containing […] of a 10% DMSO in RPMI-1640 media solution without test compound as the control sample. The samples were mixed by agitation and then incubated at 37° C. for 24 h in a 5% CO2-95% humidity incubator. After incubation, the samples were removed from the incubator and 50 μl of a solution containing 20 μM of N-(Ac-DEVD)-N′-ethoxycarbonyl-R110 fluorogenic substrate SEQ ID NO:1 (Cytovia, Inc.; U.S. Pat. No. 6,335,429), 20% sucrose (Sigma), 20 mM DTT (Sigma), 200 mM NaCl (Sigma), 40 mM Na PIPES buffer pH 7.2 (Sigma), and 500 μg/mL lysolecithin (Calbiochem) was added. The samples were mixed by agitation and incubated at room temperature. Using a fluorescent plate reader (Model 1420 Wallac Instruments), an initial reading (T=0) was made approximately 1–2 min after addition of the substrate solution, employing excitation at 485 nm and emission at 530 nm, to determine the background fluorescence of the control sample. After approximately 3 h of incubation, the samples were read for fluorescence as above (T=3 h).
The Relative Fluorescence Unit values (RFU) were used to calculate the sample readings as follows: RFU(T=3h)−Control RFU(T=0)=Net RFU(T=3h)
The activity of caspase cascade activation was determined by the ratio of the net RFU value for derivatives of gambogic acid to that of control samples. The EC50 (nM) was determined by a sigmoidal dose-response calculation (Prism 2.0, GraphPad Software Inc.).
Methyl 9,10-dihydro-10-morpholinyl-gambogate and gambogic acid were assayed as described in Example 28 in T47D cells. The samples of cells and testing compound were incubated for 5 h and 24 h, respectively. Table II summarizes the caspase activity (Ratio) and potency (EC50) of methyl 9,10-dihydro-10-morpholinyl-gambogate (compound B) in the 5 h and 24 h assays, in comparison with that of gambogic acid (compound A).

Data set [2] is described as follows: Conversion of methyl 9,10-dihydro-10-morpholinyl-gambogate to methyl gambogate in biological media (HPLC). Type of data set: physicochemical. The procedure:
A solution of methyl 9,10-dihydro-10-morpholinyl-gambogate in 87.5% RPMI 1640 biological Media (Invitrogen Corporation, Carlsbad, Calif.), 5.6% EtOH, 1.3% DMSO, and 5.6% Cremophor EL at a concentration of 5 mg/ml was stored at 37° C. The amount of methyl 9,10-dihydro-10-morpholinyl-gambogate (compound B) and methyl gambogate (compound C) was measured by integration of the peak area. The HPLC was run in the Beckman System Gold with 32 Karate software under the following conditions: […]

Another data set has as its system ICR (CD-1) mice. The data set can be described thus: Maximum tolerated dose (MTD) in mice, I.V. Format: in vivo. As to conditions: mouse, in vivo. As for the experimental part:
For acute toxicity studies, 3 ICR (CD-1) mice were used per each dose group. Animals were given a single bolus injection in the tail vein with approximately 100 μl volume of compound formulation or vehicle formulation. Mice body weights were measured daily along with daily observation for clinical abnormalities. The maximum tolerated dose (MTD) was defined as the dose that results in less than 10% decrease in body weight with no clinical abnormalities.
For multiple dose studies, the animals were dosed once a day for 5 days.
Table IV summarizes the MTD of gambogic acid and methyl 9,10-dihydro-10-morpholinyl-gambogate in mice by I.V. administration.

The test system of data set [3] is human tumor xenograft models. Nature of the data set: Efficacy studies in human tumor xenograft models (text summary, model not named). Format: in vivo, human tumor in nu/nu mice. As for the experimental part: as §1
(A xenograft is tissue or cells of one species grown in another, often human tumour cells in immunodeficient mice.)

In data set [4] the test system is SW620 (colorectal cancer). The data set can be described thus: Efficacy in human tumor xenograft mouse model SW620. Type of data set: in vivo, human tumor in CD1 nu/nu mice. As to conditions: 75 mg/kg, every day, I.V. The procedure: as §1

The EC50 is the midpoint of the concentration-response curve. As to `COC(=O)C(C)=CCC12OC(C)(C)C3CC(C1=O)C(N1CCOCC1)C1C(=O)c4c(O)c5c(c(CC=C(C)C)c4OC132)OC(C)(CCC=C(C)C)C=C5` (stereo not drawn) [B, Methyl 9,10-dihydro-10-morpholinyl-gambogate], in data set [1], the “CL, Clearance” value was 2.33 mL/min/kg; the “T1/2, Terminal half-life” value came to 27.6 h; the “Vss, Vol. of distribution” value was found to be 2.12 L/kg. Moreover, in data set [1] (plasma), the “AUC (0-inf), Area under the curve” value is 353,021 ng-h/ml. Moreover, the “% Tumor reduction” value in the data set on MX-1 (Breast cancer) is 60%. In the data set with T-47D (5 h assay), the “Activity in the caspase activation / apoptosis induction assay (in words), 5 h” value is “not active” and the “Caspase activity (Ratio), 5 h” value was 1.2. Also, the EC50 in the data set with T-47D (5 h assay, read-out: Caspase potency EC50, 5 h) was > 10 µM. For the same compound, in the data set with T-47D (24 h assay), the “Activity in the caspase activation / apoptosis induction assay (in words), 24 h” value was “active” and the “Caspase activity (Ratio), 24 h” value worked out at 19. For the same compound, the EC50 in the data set on T-47D (24 h assay, read-out: Caspase potency EC50, 24 h) was 3.8 µM. In addition, in data set [2] (37° C., RPMI biological media), the “Conversion to methyl gambogate (reversal of Michael addition) in biological media (in words)” value is listed as “reverse to methyl gambogate; also recorded: converted slowly”. For the same compound, the “Amount in biological media, 0 h” value in data set [2] (solution of compound B 5 mg/ml in 87.5% RPMI 1640, 37° C., HPLC peak area, 0 h) came out at 92. For the same compound, in data set [2] (solution of compound B 5 mg/ml in 87.5% RPMI 1640, 37° C., HPLC peak area, 2 h), the “Amount in biological media, 2 h” value is recorded as 92. For the same compound, the “Amount in biological media, 18 h” value in data set [2] (solution of compound B 5 mg/ml in 87.5% RPMI 1640, 37° C., HPLC peak area, 18 h) is reported as 72. Further, in data set [2] (solution of compound B 5 mg/ml in 87.5% RPMI 1640, 37° C., HPLC peak area, 48 h), the “Amount in biological media, 48 h” value worked out at 49. Besides, the “Amount in biological media, 90 h” value in data set [2] (solution of compound B 5 mg/ml in 87.5% RPMI 1640, 37° C., HPLC peak area, 90 h) is recorded as 28. In the data set on ICR (CD-1) mice, the “Acute MTD” value is on record as >100 mg/kg and the Injection site toxicity result was “substantially reduced”. In addition, in the data set on ICR (CD-1) mice (iv), the “Multiple Dose MTD” value is recorded as “Once a day, 5 doses: >100 mg/kg” and the “Systemic toxicity / tolerability (in words)” value is “significantly less systemic toxicity than gambogic acid”. Also, the “Body weight loss / behavioral changes in efficacy studies” value in data set [3] (several human tumor xenograft models) was “no significant body weight loss or abnormal behavioral changes”. In data set [3] (summary of Table VI, gambogic acid at its maximal tolerable dose), the “Efficacy (in words)” value is “good efficacy”. Also, in data set [4], the “% Tumor reduction” value amounted to 58%.

(Values after patent publication US7176234B2, “Derivatives of gambogic acid and analogs as activators of caspases and inducers of apoptosis” (priority 2002, dated 2007).)
